Data on 11 compounds can be found in article PMC9820303, “^αN-Acetyl β-Endorphin Is an Endogenous Ligand of σ1Rs That Regulates Mu-Opioid Receptor Signaling by Exchanging G Proteins for σ2Rs in σ1R Oligomers” (International Journal of Molecular Sciences, 2022).

For the assay, the target named is σ1R-σ2R (Mus musculus, UniProt O55242). Briefly: In vitro σ1R-σ2R association of recombinant proteins (HaloLink-σ2R, Western blot). It is filed as biochemical, murine. Set-up: The coding region of the full-length murine σ1R (AF004927); GST (N, cleaved yes); made in house; host or cells: E. coli BL21 (KRX). The conditions noted are these: for effect on σ1R-σ2R association: increasing concentrations, 30 min RT, vs control without ligand; for effect on the disruption of σ1R-σ2R associations by β-End 1–31: fixed concentration of β-End 1–31 (or β-End 1–27), increasing competitor; for EC50 to disrupt σ1R-σ2R interactions (range in words): 50 mM Tris-HCl pH 7.4, 0.2% CHAPS, 2.5 mM CaCl2, 30 min RT, n = 3. The procedure:
Figure 7 Effect of β-End 1–31, ^αN-acetyl β-End 1–31 and their N-terminal derivatives on σ1R-σ2R, σ1R-NR1 C1 and σ1R-BiP associations. Amino acid sequence of β-End 1–31 showing derivatives 1–26 and 1–27. (A) HaloLink-attached σ2Rs were incubated for 30 min at RT in the presence of σ1Rs (100 nM) in 300 μL of 50 mM Tris-HCl (pH 7.4), 0.2% CHAPS, and 2.5 mM CaCl2. After removing the unbound σ1R proteins, the effects of increasing the peptide concentrations on σ1R-σ2R associations were studied. At the end of the incubation, protein complexes bound to HaloLink-σ2R were obtained by centrifugation, washed three times, solubilized in 2× Laemmli buffer containing β-mercaptoethanol, resolved by SDS-PAGE, and analyzed by Western blotting (for more details, see Section 4). This protocol was also used to assess the effect of ligands on (B) σ1R-NR1 C1 and (C) σ1R-BiP associations. Data were compared to that of the control, which was obtained in the absence of ligands. (A–C) Data are the mean ± SD, n = 3. (D) The β-End 1–31 structural models were predicted by Novafold (DNASTAR Lasergene protein v.17, Inc., Madison, WI, USA). Ribbon model: The 3D structure, charge distribution and hydrophobicity map of β-End 1–31 are shown. Positive charges are shown in red and negative charges in blue. Polar surfaces are shown in yellow, and nonpolar surfaces are shown in orange. Linear model: the opioid (1–5) and flexible region (8–11) sequences are shown in green and orange, respectively, and the amphiphilic helix (15–25) is shown in pink.
The recombinant σ1R (100 nM) was incubated either with Haloprotein (negative control) or together with the immobilized σ2R, NR1 C0-C1-C2 or BiP proteins in 300 µL of a buffer containing 50 mM Tris-HCl (pH 7.4) and 0.2% CHAPS in the presence of 2.5 mM CaCl2 for 30 min at RT. After removal of the unbound σ1R, the agarose-attached complexes were incubated for 30 min with rotation at RT in the presence of increasing concentrations of the ligands in a final reaction volume of 300 µL [50 mM Tris-HCl (pH 7.4), 2.5 mM CaCl2 and 0.2% CHAPS]. Ligands were usually dissolved in aqueous solutions; however, when an organic solvent such as DMSO was required to incorporate, e.g., pregnenolone sulfate, the solvent remained below 1% in the assay buffer. Agarose pellets containing the bound proteins were obtained by centrifugation, washed and resuspended thrice in the presence of 2.5 mM CaCl2, solubilized in 2× Laemmli buffer plus β-mercaptoethanol, and analyzed by Western blotting.
Because all the assays were performed with recombinant proteins, the immune signals provided a single band of the expected size, which was used for the subsequent densitometry analysis. Accordingly, no other regions of the blots provided information and were routinely excluded from the analysis.
Figure S7. Effect of σ1R agonist/antagonist ligands on σ1R-σ2R heterodimers. (A-C) Agarose (Θ)- attached σ2Rs captured recombinant σ1Rs. After removing unbound σ1R proteins, the Θ-σ2R.σ1R complexes were incubated with a ﬁxed concentration of a selected L1 ligand (indicated in brackets) in the absence and presence of increasing concentrations of competing σ1R ligands as indicated. The σ1Rs that remained attached to the Θ-σ2Rs were evaluated by Western blotting. * Signiﬁcant differences with respect to the control group that was incubated without L1 ligands. ANOVA followed by the Holm-Sidak multiple comparisons test, p < 0.05. For details, see Methods and Figure 6A. Representative blots are […]
Figure S8. Effect of the physiological and nonphysiological sequences of β-End 1-31 and classical σ1R ligands on BiP-σ1R, σ2R-σ1R and NR1 C1-σ1R associations . Agarose-BiP was loaded with σ1Rs, and after the unbound σ1Rs were removed, the agarose-BiP-σ1R complexes were incubated in the absence (control) and presence of increasing concentrations of (A) β-End 1-31 C-terminal physiological derivatives and (B) classical σ1R ligands. C) Agarose-σ2R loaded with σ1Rs was incubated in the […]
(Immunoblotting shows a protein as a band on a membrane.)

Sequence of σ1R-σ2R (O55242 whole entry): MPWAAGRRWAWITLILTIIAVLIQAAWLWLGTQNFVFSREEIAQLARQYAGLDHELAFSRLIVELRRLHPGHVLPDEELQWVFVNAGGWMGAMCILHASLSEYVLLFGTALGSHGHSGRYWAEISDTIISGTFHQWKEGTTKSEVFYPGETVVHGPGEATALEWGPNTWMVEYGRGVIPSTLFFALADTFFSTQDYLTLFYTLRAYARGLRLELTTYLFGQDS

For `Br.Br.CN(C)CCN(C)CCc1ccc(Cl)c(Cl)c1` [BD1047, N′-[2-(3,4-dichlorophenyl)ethyl]-N,N,N′-trimethylethane-1,2-diamine;dihydrobromide, reference compound], the “effect on σ1R-σ2R association” value is on record as “did the opposite”. The same measure, in the same setting: as for `COC(=O)[C@]1(c2ccc(C)cc2)C[C@@H]1CN1CCC(O)(c2ccccc2)CC1` [PPCC, (1R,2S/1S,2R)-2-[4-hydroxy-4-phenylpiperidin-1-yl)methyl]-1-(4-methylphenyl) cyclopropanecarboxylate, reference compound], the entry is “impaired σ1R associations with σ2R and BiP”; as for `Cl.O=C(OCCN1CCOCC1)C1(c2ccccc2)CCCCC1` [PRE084, 2-(4-morpholinethyl)-1-phenylcyclohexanecarboxylate hydrochloride, reference compound], “impaired σ1R associations with σ2R and BiP”. Turning to `Cc1cc(OCCN2CCOCC2)nn1-c1ccc2ccccc2c1` [S1RA], the “effect on σ1R-σ2R association” value is recorded as “did the opposite”. On to “KKGE [β-End 28–31, C-terminal tetrapeptide of β-End 1–31]”, for which the “effect on the disruption of σ1R-σ2R associations by β-End 1–31” value is “counteracted” and the “effect on σ1R-σ2R association” value is “promoted σ1R-σ2R associations”. For “YKKGE [β-End 27–31, C-terminal pentapeptide of β-End 1–31]”, the “effect on σ1R-σ2R association” value is recorded as “reduced σ1R-σ2R”. Consider “^αN-acetyl β-End 1–31: β-End 1–31 acetylated at N terminal Y1, α position”, for which the “effect on the disruption of σ1R-σ2R associations by β-End 1–31” value is given as “antagonized” and the “effect on σ1R-σ2R association” value was “strengthened”. In addition, the “affinity toward σ1R indicated by the potency to counteract the β-End 1–31 effect” value (competition with β-End 1–31 on σ1R-σ2R (Figure S7A)) is given as “fM range”. In the case of “β-End 1–26: β-End 1–31 derivative without 5 C-terminal residues (YGGFMTSEKSQTPLVTLFKNAIIKNA; Beta-endorphin; UniProt P01189 237-262, looked up, fragment)”, the “EC50 to disrupt σ1R-σ2R interactions (range in words)” value is on record as “low–medium nM range”. Still for that read-out and setting: as for “β-End 1–27: β-End 1–31 derivative without 4 C-terminal residues (YGGFMTSEKSQTPLVTLFKNAIIKNAY; Beta-endorphin; UniProt P01189 237-263, looked up, fragment)”, the entry is “low–medium nM range”. With “β-End 6–31: β-End 1–31 lacking the N-terminal met-enkephalin 1–5 sequence (TSEKSQTPLVTLFKNAIIKNAYKKGE; Beta-endorphin; UniProt P01189 242-267, looked up, fragment)”, the “effect on σ1R-σ2R association” value was “diminished σ1R-σ2R associations”. The same measure, in the same setting: as for “β-End 22–31: nonphysiological C-terminal sequence of β-End 1–31 (IIKNAYKKGE; Beta-endorphin; UniProt P01189 258-267, looked up, fragment)”, the entry is “promoted their association”.
